Consider two molecules from US12427175B2, “Fecal fungome and therapeutic efficacy of fecal microbiota transplantation” (priority 2018, dated 2025).

Structures are written as SMILES. “Also recorded” adds a separate entry of the source.

For one assay, the system named is C. difficile. Kind of assay: Antifungal (fluconazole) treatment before FMT in mice with di-colonisation of C. albicans and C. difficile. It is filed as in vivo, mouse (C57BL/6). Particulars: recipient mice colonized with C. albicans; fluconazole 0.5 mg/mL in drinking water 4 days before stool infusion. The procedure: Mice was initially colonized with C. albicans (2×10^8 cfu per mouse) after 3 days of antibiotic cocktail treatment in the drinking water, followed by 4 days of fluconazole treatment supplemented in the drinking water (0.5 mg/mL, Sigma). Then the mice were subjected to C. difficile administration (10^7 spores per mice) through gavage after a consecutive 1.5-day antibiotic cocktail- and 1.5-day free water-drinking. Human stool infusion was performed 2 days later after C. difficile gavage. Both C. difficile load and C. albicans load were enumerated by cultivation on Day 0 before FMT and Day 1 after FMT.
Mouse stool were collected both before and after stool infusion. Fecal C. difficile and C. albicans burdens on day 0 before and day 1 after stool infusion were measured by cultivation. Samples were diluted in PBS and respectively plated on taurocholate cycloserine cefoxitin fructose agar (TCCFA) for quantification of C. difficile burden, on Sabouraud dextrose agar (SDA) for quantification of C. albicans load. Stool samples prior to C. albicans colonization from antibiotic-treated mice were plated on SDA to ensure that mice were C. albicans culture negative.

For a further assay, the system named is C. albicans. Kind of assay: Enumeration of C. albicans in feces of mice by cultivation on SDA. The assay is classed as in vivo, mouse (C57BL/6). The following applies: day 4 after administration of C. albicans, fluconazole in drinking water.
In assay [1] the test system is Clostridium difficile infection (CDI). Kind of assay: Randomised controlled trial of FMT versus vancomycin (STD) in patients with CDI: treatment outcome. It is filed as in vivo, human. As to the method:
The current study was a sub-study from a randomised controlled trial (RCT) of FMT versus vancomycin (standard therapy, STD) for patients with CDI. Consecutive CDI subjects enrolled into this randomised controlled trial were invited to participate in a substudy of assessment of fecal microbiota. Patients were included if they had three or more loose or watery stools per day for at least two consecutive days or eight or more soft or loose stools in 48 hours and a positive stool test for C. difficile based on a two-step testing algorithm in our hospital, a positive GDH (Glutamate dehydrogenase) screening test followed by a positive polymerase chain reaction (PCR) test of C. difficile. A total of 31 subjects with CDI and 24 healthy household controls were recruited and stool samples at baseline were obtained for analyses of fungal and bacterial microbiomes. Among them, 24 CDI subjects consented to have stool samples collected serially after treatment for microbiome analysis. 16 CDI subjects were treated with FMT and 8 were treated with vancomycin, and they were followed up at baseline and at weeks 2, 4, 10 and 16 after treatment (FIG. 6). Subjects in the FMT group received 5 days of vancomycin followed by donor infused stool via nasojejunal route and those who had STD received oral vancomycin 500 mg orally four times per day for 10 days. A computer-generated randomization schedule was used to assign patients to the treatment sequences. All patients kept a stool diary and were questioned about stool frequency and consistency and medication use.
Treatment response was defined as an absence of diarrhea or persistent diarrhea that could be explained by other causes with a negative stool test for C. difficile toxin, while relapse was defined as diarrhea with a positive stool test for C. difficile toxin. […]
In subjects who received FMT, a nasoduodenal tube was inserted with radiology guidance. […] The tube was removed 30 minutes after the infusion, and patients were monitored for 2 hours. […]

For a further assay, the system named is gut mycobiota. Kind of assay: Fungal ITS2 sequencing of fecal DNA (gut mycobiota diversity, richness, composition). The assay is classed as in vivo, human. The procedure: (§1) Fecal DNA was isolated as described below. 100 mg fecal sample was pre-washed with 1 ml ddH2O and pelleted by centrifugation at 10,000×g for 1 minute. The fecal pellet was re-suspended in 800 μl TE buffer (pH 7.5), supplemented with 1.6 μl 2-Mercaptoethanol and 500 U lyticase (Sigma), and incubated at 37° C. for 60 min. The sample was then centrifuged at 10,000×g for 2 minutes and fecal DNA was subsequently extracted from the pellet using ZR Fecal DNA miniPrep kit (Zymo Research, Orange, CA) according to the protocol. Briefly, fecal pellet was added to the BashingBeadLysis Tube with 750 μl Lysis solution, and then processed at maximum speed for 10 minutes. The lysates were centrifuged at ≥10,000×g for 1 minute. The supernatant was transferred to a Zymo-Spin™ IV Spin Filter in a collection tube and centrifuged at 7,000×g for 1 minute. About 1,200 μl of fecal DNA binding buffer was added to the filtrate in the collection tube, followed by concentration and purification in a new filter tube. Finally, a total of 50 μl eluted DNA with a concentration at 20-100 ng/μl was prepared for each sample.
The final fecal DNA for fungal sequencing was amplified based upon ITS2 (Internal transcribed spacer 2) region using primers as below and PrimeSTAR HS DNA Polymerase kit (TaKaRa, Japan). The primer pairs are ITS2-F: 5′-[…]-3′, ITS2-R: 5′-[…]-3′ (SEQ ID NOs 1 and 2, respectively). ITS2 amplicons were generated with 38 cycles of 3-step PCR: 98° C. 10 s, 59° C. 10 s, and 72° C. 30 s. PCR samples were then sequenced on the Illumina MiSeq PE300 platform (2×300 bp, BGI, China), 151,524±97,694 (number±SD) clean sequences obtained on average (sequence statistics in Table 4).
Raw reads were filtered by SOAPnuke (v 1.5.3) (web site: soap.genomics.org.cn/) developed by BGI as follows: (i) adaptors removed, (ii) read removed if N base is more than 3% of the read, (iii) read removed if bases with quality low than 20 were more than 40% of read, (iv) all duplicates removed. Quality control and data analysis were further implemented in PIPITS (v 1.4.5) 31. Briefly, PIPITS_PREP prepares raw reads from Illumina MiSeq sequencers for ITS extraction; PIPITS_FUNITS extracts ITS2 from the reads; and PIPITS_PROCESS analyses the reads to produce operational taxonomic unit (OTU) abundance tables and the RDP taxonomic assignment table for downstream analysis. The quality trimmed and ITS2 extracted reads were aligned to fungi UNITE database exploiting RDP classifier 2.10 for taxonomic assignment to produce operational taxonomic unit (OTU) abundance table (based on sequence identity >97% identity) and phylotype abundance tables at different taxonomic levels, for downstream analysis.
The fungal OTU and phylptype abundance data were imported into R 3.2.3. Richness, diversity, and evenness calculation were performed using the estimated richness function of the phyloseq package. Spearman correlation and their significance were calculated using the cor and cor.test functions in R, respectively. […] Correlation plots were generated using the corrplot package in R. Heat maps were generated using the pheatmap package in R.
To compare differences in the configurations of fungal and bacterial microbiomes between CDI patients and healthy controls, between FMT responders and non-responders, between FMT treatment and vancomycin (STD) treatment, Lefse analyses were performed on the Huttenhower lab Galaxy server (web site: huttenhower.sph.harvard.edu/galaxy/) by importing the […] and bacterial relative abundance values and associated sample metadata, with FDR adjusted p value <0.05 considered significant and effect size calculated. […]

For another assay, the system named is gut bacterial microbiota. Kind of assay: Bacterial 16S rRNA sequencing of fecal DNA (bacterial microbiota diversity, richness). It is filed as in vivo, human. The following applies: responders. The procedure: as §1
The final fecal DNA samples were subject to bacterial 16S rRNA V4 region amplification and sequenced on the Illumina MiSeq PE250 platform (2×250 bp, BGI, China), 132,081±65,429 (number±SD) sequences obtained on average (sequence statistics in Table 5). […]

In the case of `OC(Cn1cncn1)(Cn1cncn1)c1ccc(F)cc1F` [fluconazole], the “efficacy of FMT in clearing C. difficile infection after anti-fungal treatment” value in the assay with C. difficile is “restored the efficacy of FMT in clearing C. difficile infection”. Further, in the assay on C. albicans, the “C. albicans in feces by cultivation” value is given as “negative”.

Take `CN[C@H](CC(C)C)C(=O)N[C@H]1C(=O)N[C@@H](CC(N)=O)C(=O)N[C@H]2C(=O)N[C@H]3C(=O)N[C@H](C(=O)N[C@H](C(=O)O)c4cc(O)cc(O)c4-c4cc3ccc4O)[C@H](O)c3ccc(c(Cl)c3)Oc3cc2cc(c3O[C@@H]2O[C@H](CO)[C@@H](O)[C@H](O)[C@H]2O[C@H]2C[C@](C)(N)[C@H](O)[C@H](C)O2)Oc2ccc(cc2Cl)[C@H]1O` [vancomycin]: the “subjects who developed recurrence of CDI (non-responders)” value in assay [1] (16 subjects on FMT, 8 on vancomycin) is reported as “three”. In assay [1] (16 subjects on FMT, 8 on vancomycin, median follow-up of 16 weeks), the “subjects cured of CDI / symptom-free with negative stool C. difficile toxin at last follow-up (responders)” value is 5 of the 8 and Five of the eight. In addition, the Recurrence at week result in assay [1] (individual CDI subject with recurrence, listed as STD) is “week 12; also recorded: week 7; also recorded: week 5”. The “alterations in fungal richness and diversity during longitudinal follow-up” value in the assay with gut mycobiota (8 CDI subjects treated with vancomycin) was “inconsistent alterations”. Further, in the assay with gut mycobiota (11 out of 16 (FMT), 3 out of 8 (vancomycin)), the “CDI subjects with an increase in gut fungal richness after treatment” value came out at 37.5%. Moreover, in the assay with gut mycobiota (13 out of 16 (FMT), 3 out of 8 (vancomycin)), the “CDI subjects with an increase in gut fungal diversity after treatment” value was determined as 37.5%. For the same molecule, in the assay with gut mycobiota (all follow-up samples of treatment responders), the “fungal genera enriched in treatment responders after treatment (LefSe)” value is listed as “Candida, Talaromyces, Erythrobasidium, Periconia, Stemphylium, Ganoderma”. Further, the “genus Candida in fungal composition after treatment” value with gut mycobiota (during follow-up across STD subjects) was “marked expansion”. In addition, in the assay on gut mycobiota (last follow-up vs baseline, vancomycin: STD responders), the “relative abundance of fecal C. albicans after treatment” value is “decrease”. The “change in bacterial diversity after treatment” value in the assay with gut bacterial microbiota is on record as “significant increase”.
